The series deals with L929 cells. As to the kind of experiment: Cytotoxicity evaluation, agar overlay, ASTM F895-84 / ISO 10993-5. In kind it is cell-based. Set-up: key to Zone Description Following 48 Hour Incubation (size of zone of lysis): 0: No detectable zone around or under specimen; 1: Zone limited to area under specimen; 2: Zone extends less than 0.5 cm beyond specimen; 3: Zone extends 0.5 to 1.0 cm beyond specimen; 4: Zone extends greater than 1.0 cm beyond specimen but does not involve entire dish; 5: Zone involves entire dish. The note with it: L929 monolayer, replicate wells. The protocol: ASTM F895-84 Test Method was Utilized.
The Sample was analyzed as described in ASTM F895-84 and ISO 10993-5. Monolayers of L929 cells were grown in six 150 mm cell culture plates (Corning, USA). Following 24 hours to cell passage, the plates were over-layed with agar supplemented dMEM/FBS media as described by the ASTM method. One hundred milligrams of the provided samples was added to the center of four of the over-layed wells. One well was left undisturbed as this served as negative control. An additional well was inoculated with a 2 cm^2 piece of latex rubber. The cells were then incubated in 5% carbon dioxide at 36.5° C.±1 for 24 hours. The plates and cells were evaluated macro and microscopically for signs of malformation, degeneration, sloughing, or lysis of the cells within the zone directly beneath and surrounding the discs. Cells were then re-incubated for an additional 24 hours at the conditions described above and evaluated again. The size of the zone surrounding the inoculated area was evaluated for signs of cell growth inhibition and/cell lysis.
Table 3 contains the numerical values describing the size of zone of lysis surrounding the inoculums as per the ASTM standards. Table 4 contains the relative numerical value describing the number of cells affected within the zone of inhibition or toxicity. Each sample observed is assigned a numerical value based on cellular degradation and/or cell death.
Briefly, number 0=unchanged/no evident cytotoxicity; 5=complete monolayer destruction and severe cytotoxicity. The ASTM and ISO 10993-5 consider a scoring of 3 or higher as toxic.

As to `Oc1ccccc1` [(+) Control, Phenol], for the setting “24 Hour Incubation”, the “Cell Description Following 24 Hour Incubation (condition of cells within the zone of lysis)” value was 5 (Greater than 80% of zone affected of zone affected) and the “Zone Description Following 24 Hour Incubation (size of zone of lysis)” value was 4 (Zone extends greater than 1.0 cm beyond specimen but does not involve entire dish). Where the note is “48 Hour Incubation”, the “Cell Description Following 48 Hour Incubation (condition of cells within the zone of lysis)” value was 5 (Greater than 80% of zone affected of zone affected) and the “Zone Description Following 48 Hour Incubation (size of zone of lysis)” value is 5.

Values taken from patent US20150044136A1, “Ophthalmological treatment for michobial infections” (priority 2013, published 2015).
